# Assay results: US20040097408A1, “Compounds regulating cell proliferation and differentiation” (priority 2001, published 2004)
# Columns and labels:
# [1] = FACS analysis of F16 in tumor cell populations; assay type: in vivo, mouse; settings: tumors of F16-treated nude mice
# Experimental: Several tumor cell populations from F16 treated and untreated mice were analyzed by FACS, in order to determine the presence of F16 in the cells.
# [2] = tested on: BT474; assay: cell count proliferation assay; assay type: cell-based; set-up: key: +: A positive scoring in these Tables represent cells in which a 2-5 and a 10-40 fold reduction in the total number of cells relative to the control untreated cells was observed after 3 and 7 days of culture with F16, respectively; settings: BT474, human breast; F16 3 μM, cells counted after 3 and 7 days
# [3] = tested on: SH1.1; assay: cell count proliferation assay; assay type: cell-based, mouse; set-up: key: +: A positive scoring in these Tables represent cells in which a 2-5 and a 10-40 fold reduction in the total number of cells relative to the control untreated cells was observed after 3 and 7 days of culture with F16, respectively; settings: SH1.1, Ras, breast; F16 3 μM, cells counted after 3 and 7 days
# Source text: (§1) The following panel of mouse tumor cell lines derived from Neu, Ras and Myc transgenic mice and panel of human cancer cell lines were used: a) Neu-initiated mouse tumor cell lines NF980, NF324-2A, NF324-1B, SMF, NAF, Neu4145, n-Neu, Ras-initiated mouse tumor cell lines SH1,1, AC236, AC711, AC816, ACp53^−#1, ACp53^−4782, AC222, AC99, AC260, ACp53^−#19, ACp53^−#16, AC/Balb6.6, AC/Balb14, AC/Balb12 and Myc-initiated mouse tumor cell lines 16MB9a, 13MA1a; and b) human breast tumor cell lines MDA-MB231, MDA-MB435, MDA-MB436, MDA-MB453, MDA-MB-468, SKBR-3, MCF-7, T47D, ZR75; human prostate cancer cell lines LNCaP, PC-3, DU145 and the human ovarian cancer cell line SKOV-3.
# (§2) For each cell line, 10^5 cells were seeded in 4×6 well plates. Next day, F16 was added at 3 μM to the medium of 2 of the plates, while the other two were left untreated (control). Cells were counted 3 days and 7 days after initiation of treatment.
# (§3) A positive scoring in these Tables represent cells in which a 2-5 and a 10-40 fold reduction in the total number of cells relative to the control untreated cells was observed after 3 and 7 days of culture with F16, respectively.
# [4] = tested on: AC236; assay: cell count proliferation assay; assay type: cell-based, mouse; set-up: key: +: A positive scoring in these Tables represent cells in which a 2-5 and a 10-40 fold reduction in the total number of cells relative to the control untreated cells was observed after 3 and 7 days of culture with F16, respectively; settings: AC236, Ras, breast; F16 3 μM, cells counted after 3 and 7 days
# Source text: as §1, §2, §3
# [5] = tested on: n-Neu; assay: cell count proliferation assay; assay type: cell-based, mouse; set-up: key: +: A positive scoring in these Tables represent cells in which a 2-5 and a 10-40 fold reduction in the total number of cells relative to the control untreated cells was observed after 3 and 7 days of culture with F16, respectively; settings: breast, F16 3 μM, cells counted after 3 and 7 days
# Source text: as §1, §2, §3
# [6] = tested on: Neu4145; assay: cell count proliferation assay; assay type: cell-based, mouse; set-up: key: +: A positive scoring in these Tables represent cells in which a 2-5 and a 10-40 fold reduction in the total number of cells relative to the control untreated cells was observed after 3 and 7 days of culture with F16, respectively; settings: Neu4145, Neu, breast; F16 3 μM, cells counted after 3 and 7 days
# Source text: as §1, §2, §3
# [7] = tested on: AC711; assay: cell count proliferation assay; assay type: cell-based, mouse; set-up: key: +: A positive scoring in these Tables represent cells in which a 2-5 and a 10-40 fold reduction in the total number of cells relative to the control untreated cells was observed after 3 and 7 days of culture with F16, respectively; settings: AC711, Ras, breast; F16 3 μM, cells counted after 3 and 7 days
# Source text: as §1, §2, §3
# [8] = tested on: NAF; assay: cell count proliferation assay; assay type: cell-based, mouse; set-up: key: +: A positive scoring in these Tables represent cells in which a 2-5 and a 10-40 fold reduction in the total number of cells relative to the control untreated cells was observed after 3 and 7 days of culture with F16, respectively; settings: Neu, breast, F16 3 μM, cells counted after 3 and 7 days
# Source text: as §1, §2, §3
# [9] = tested on: SMF; assay: cell count proliferation assay; assay type: cell-based, mouse; set-up: key: +: A positive scoring in these Tables represent cells in which a 2-5 and a 10-40 fold reduction in the total number of cells relative to the control untreated cells was observed after 3 and 7 days of culture with F16, respectively; settings: Neu, breast, F16 3 μM, cells counted after 3 and 7 days
# Source text: as §1, §2, §3
# [10] = tested on: NF980; assay: cell count proliferation assay; assay type: cell-based, mouse; set-up: key: +: A positive scoring in these Tables represent cells in which a 2-5 and a 10-40 fold reduction in the total number of cells relative to the control untreated cells was observed after 3 and 7 days of culture with F16, respectively; settings: NF980, Neu, breast; F16 3 μM, cells counted after 3 and 7 days
# Source text: as §1, §2, §3
# [11] = tested on: NF324-1B; assay: cell count proliferation assay; assay type: cell-based, mouse; set-up: key: +: A positive scoring in these Tables represent cells in which a 2-5 and a 10-40 fold reduction in the total number of cells relative to the control untreated cells was observed after 3 and 7 days of culture with F16, respectively; settings: Neu, breast, F16 3 μM, cells counted after 3 and 7 days
# Source text: as §1, §2, §3
# [12] = tested on: AC816; assay: cell count proliferation assay; assay type: cell-based, mouse; set-up: key: +: A positive scoring in these Tables represent cells in which a 2-5 and a 10-40 fold reduction in the total number of cells relative to the control untreated cells was observed after 3 and 7 days of culture with F16, respectively; settings: AC816, Ras, breast; F16 3 μM, cells counted after 3 and 7 days
# Source text: as §1, §2, §3
# [13] = tested on: NF324-2A; assay: cell count proliferation assay; assay type: cell-based, mouse; set-up: key: +: A positive scoring in these Tables represent cells in which a 2-5 and a 10-40 fold reduction in the total number of cells relative to the control untreated cells was observed after 3 and 7 days of culture with F16, respectively; settings: Neu, breast, F16 3 μM, cells counted after 3 and 7 days
# Source text: as §1, §2, §3
# [14] = tested on: mice; assay: tolerability of intraperitoneal F16 in mice
compound,measurement,setting,value
C[n+]1ccc(/C=C/c2c[nH]c3ccccc23)cc1.[I-] [F16],"presence of F16 in tumor cells (fluorescent signal, FACS)",[1],delivered to the tumor cell mass
same,F16 response,[2],+
same,F16 response,[3],+
same,F16 response,[4],+
same,F16 response,[5],+
same,F16 response,[6],+
same,F16 response,[7],+
same,F16 response,[8],+
same,F16 response,[9],+
same,F16 response,[10],+
same,F16 response,[11],+
same,F16 response,[12],+
same,F16 response,[13],+
same,deaths after injection,"[14]; 50 mg/kg, a few hours after the injection",one mouse out of 5
same,maximum tolerable dose (MTD),"[14]; intraperitoneal injection, mice",~50 mg/kg
